The assay has as its system male rhesus monkeys (Macaca mulatta). Kind of assay: Cocaine discrimination testing (Study 1), pretreatment protocol. In kind it is in vivo. The following applies: cocaine alone. The procedure: Subjects: The subjects are four male rhesus monkeys (Macaca mulatta), weighing 5.7-8.1 kg and maintained on a diet of 3-4 monkey biscuits and one piece of fresh fruit per day. During the week, all food is delivered after the experimental session, whereas at weekends, food is delivered between 9 a.m. and noon. Water is freely available at all times. The monkeys are housed in a humidity and temperature controlled room with a 12 h light-dark cycle (lights on from 7 a.m. to 7 p.m.). Apparatus: Each monkey is housed individually in a well-ventilated, stainless steel chamber (56×71×69 cm) which includes an operant panel (28×28 cm) mounted on the front wall. Three response keys are arranged in a horizontal row 3.2 cm from the top of the operant panel. Each key can be transilluminated by red or green stimulus lights (Superbright LEDs). An externally mounted pellet dispenser delivers 1 g fruit-flavoured food pellets to a food receptacle beneath the operant response panel. A computer, located in a separate room, controls the operant panels and data collection. […]
During each response period, 3 dependent variables are determined: • 1) Percent injection-appropriate responding prior to delivery of the first reinforcer. • 2) Percent injection-appropriate responding for the entire response period • 3) Response Rate.
Monkeys meeting the following criteria during the training day immediately proceeding the test day and in at least 6 of 7 consecutive training sessions before this are used for discrimination testing: • 1) the percent injection-appropriate responding prior to delivery of the first reinforcer is ≧80% for all cycles; • 2) the percent injection-appropriate responding for the entire cycle is ≧90% for all cycles; • 3) Response rates during saline training cycles are >0.5 responses per second. […] In this protocol, a cumulative dose-effect curve for cocaine (0.013-1.3 mg/kg) is determined either alone or following pretreatment with the test compound, which is administered 20 min before the first dose of cocaine. […]

With `COC(=O)[C@H]1[C@@H](OC(=O)c2ccccc2)C[C@@H]2CC[C@H]1N2C.Cl` [cocaine, Cocaine hydrochloride], under “1.3 mg/kg”, the response rates result is reported as “usually decreases response rates”. In addition, the cocaine-appropriate responding entry (cumulative 0.013-1.3 mg/kg, all four monkeys) is on record as “dose-dependent increase in cocaine-appropriate responding”. Under “training dose 0.4 mg/kg, all monkeys”, the “substitution for training stimulus” value is on record as “Complete substitution”.

(Values after patent US7407990B2, “Therapeutic Agents” (Knoll GmbH, priority 1999, dated 2008).)
